Laboratory results reported in patent US11939314B2, “Quinolin-2-one derivatives” (MERCK PATENT GMBH, priority 2016, dated 2024).

Tests used:
[1] = biological target: T1, PDGFRalpha(V561D) (Homo sapiens, UniProt P16234, V561D); experiment: PDGFRalpha(V561D) assay; format: biochemical; details: recombinant human PDGFRalpha aa 550-end, 200 μM ATP, 1.4E-06 means 1.4×10^−6, read-out: Inhibition (IC50) of PDGFRα (V561D)
T1 construct: recombinant human PDGFRalpha, amino acids 550end containing the V561 D mutation; 6His (N)
Method in brief: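 Radiometric filter-binding assay: substrate phosphorylation by recombinant N-His-tagged human PDGFRα 550-end V561D was quenched with 3% phosphoric acid after 40 min at room temperature, then counted.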

[2] = biological target: T2, c-Kit(V654A) (Homo sapiens, UniProt P10721, V654A); experiment: c-Kit(V654A) assay; format: biochemical; details: recombinant human c-Kit aa 544-end, 200 μM ATP, 1.4E-06 means 1.4×10^−6, read-out: Inhibition (IC50) of c-KIT (V654A)
T2 construct: amino acids 544-end containing the V654A mutation; GST (N)
Method in brief: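 Radiometric filter-binding read-out: substrate 33P incorporation counted by scintillation after P30 filtermat washes in 75 mM phosphoric acid and methanol. Enzyme: N-GST recombinant human c-Kit aa 544-end carrying V654A.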

T1 sequence (P16234 550-1089 V561D): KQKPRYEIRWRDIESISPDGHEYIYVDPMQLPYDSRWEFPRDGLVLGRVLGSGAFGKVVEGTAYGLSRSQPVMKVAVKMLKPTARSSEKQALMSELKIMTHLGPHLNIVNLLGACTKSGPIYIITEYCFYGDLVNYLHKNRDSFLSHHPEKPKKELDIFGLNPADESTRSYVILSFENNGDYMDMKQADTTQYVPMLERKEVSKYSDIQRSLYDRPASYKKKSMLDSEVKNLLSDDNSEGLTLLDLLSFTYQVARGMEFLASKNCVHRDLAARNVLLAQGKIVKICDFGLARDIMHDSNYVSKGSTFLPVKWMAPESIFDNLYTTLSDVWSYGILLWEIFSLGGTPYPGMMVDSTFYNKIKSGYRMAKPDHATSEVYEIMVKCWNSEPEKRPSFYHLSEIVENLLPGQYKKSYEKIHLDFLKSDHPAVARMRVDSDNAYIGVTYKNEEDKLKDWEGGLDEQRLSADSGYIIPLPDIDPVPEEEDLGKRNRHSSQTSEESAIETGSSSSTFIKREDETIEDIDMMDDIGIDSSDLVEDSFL
T2 sequence (P10721 544-976 V654A): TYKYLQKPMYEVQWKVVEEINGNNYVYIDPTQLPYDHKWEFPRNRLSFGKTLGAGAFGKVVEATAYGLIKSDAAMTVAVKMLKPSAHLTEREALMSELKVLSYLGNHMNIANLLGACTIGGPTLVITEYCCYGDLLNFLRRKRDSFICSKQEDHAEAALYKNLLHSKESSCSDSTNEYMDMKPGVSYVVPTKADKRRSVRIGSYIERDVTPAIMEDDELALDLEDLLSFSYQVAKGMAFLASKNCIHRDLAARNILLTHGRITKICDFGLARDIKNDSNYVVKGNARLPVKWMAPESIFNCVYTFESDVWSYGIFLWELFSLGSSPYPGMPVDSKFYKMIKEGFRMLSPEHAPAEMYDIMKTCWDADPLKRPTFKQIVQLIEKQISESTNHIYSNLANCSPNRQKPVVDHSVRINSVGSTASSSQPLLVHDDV

Row | SMILES | IC50 [1] [nM] | IC50 [2] [nM]
1 | COCCOC[C@@H]1CCN(C(=O)c2ccc(-n3cc(-c4cc5cc(F)c(F)cc5[nH]c4=O)nn3)cc2)C1 [A223, 6,7-difluoro-3-(1-{4-[(R)-3-(2-methoxy-ethoxymethyl)-pyrrolidine-1-carbonyl]-phenyl}-1H-[1,2,3]triazol-4-yl)-1H-quinolin-2-one] | 410 | 350
2 | O=C(c1ccc(-n2cc(-c3cc4cc(F)ccc4[nH]c3=O)nn2)cc1)N1CCC(OCCN2CCCC2)C1 (centres unmarked) [A224, 6-fluoro-3-(1-{4-[3-(2-pyrrolidin-1-yl-ethoxy)-pyrrolidine-1-carbonyl]-phenyl}-1H-[1,2,3]triazol-4-yl)-1H-quinolin-2-one] | 280 | 70
3 | O=C(c1ccc(-n2cc(-c3cc4cc(F)c(F)cc4[nH]c3=O)nn2)cc1)N1CCC(OCCN2CCCC2)C1 (centres unmarked) [A225, 6,7-difluoro-3-(1-{4-[3-(2-pyrrolidin-1-yl-ethoxy)-pyrrolidine-1-carbonyl]-phenyl}-1H-[1,2,3]triazol-4-yl)-1H-quinolin-2-one] | 580 | 190
4 | O=C(c1ccc(-n2cc(-c3cc4cc(F)ccc4[nH]c3=O)nn2)cc1)N1CCCC2(COC2)C1 [A228, 6-fluoro-3-{1-[4-(2-oxa-6-aza-spiro[3.5]nonane-6-carbonyl)-phenyl]-1H-[1,2,3]triazol-4-yl}-1H-quinolin-2-one] | 300 | 74
5 | O=C(c1ccc(-n2cc(-c3cc4cc(F)ccc4[nH]c3=O)nn2)cc1)N1CCC2(CC1)COC2 [A229, 6-fluoro-3-{1-[4-(2-oxa-7-aza-spiro[3.5]nonane-7-carbonyl)-phenyl]-1H-[1,2,3]triazol-4-yl}-1H-quinolin-2-one] | 150 | 41
6 | COCCOC[C@H]1CCN(C(=O)c2ccc(-n3cc(-c4cc5cc(F)c(F)cc5[nH]c4=O)nn3)cc2)C1 [A233, 6,7-difluoro-3-(1-{4-[(S)-3-(2-methoxy-ethoxymethyl)-pyrrolidine-1-carbonyl]-phenyl}-1H-[1,2,3]triazol-4-yl)-1H-quinolin-2-one] | 600 | 96
7 | COCCOC[C@H]1CCN(C(=O)c2ccc(-n3cc(-c4cc5cc(F)ccc5[nH]c4=O)nn3)cc2)C1 [A236, 6-fluoro-3-(1-{4-[(S)-3-(2-methoxy-ethoxymethyl)-pyrrolidine-1-carbonyl]-phenyl}-1H-[1,2,3]triazol-4-yl)-1H-quinolin-2-one] | 560 | 53
8 | CO[C@H]1CN(C(=O)c2ccc(-n3cc(-c4cc5cc(F)ccc5[nH]c4=O)nn3)cc2)C[C@H]1OC [A237, 3-{1-[4-((3R,4S)-3,4-dimethoxy-pyrrolidine-1-carbonyl)-phenyl]-1H-[1,2,3]triazol-4-yl}-6-fluoro-1H-quinolin-2-one] | 490 | 81
9 | COCCN(CCOC)C(=O)c1ccc(-n2cc(-c3cc4cc(F)ccc4[nH]c3=O)nn2)cc1 [A238, 4-[4-(6-fluoro-2-oxo-1,2-dihydro-quinolin-3-yl)-[1,2,3]triazol-1-yl]-N,N-bis-(2-methoxy-ethyl)-benzamide] | 620 | 79
10 | CCN(CC)CC1CCN(C(=O)c2ccc(-n3cc(-c4cc5cc(F)c(F)cc5[nH]c4=O)nn3)cc2)C1 (centres unmarked) [A239, 3-{1-[4-(3-diethylaminomethyl-pyrrolidine-1-carbonyl)-phenyl]-1H-[1,2,3]triazol-4-yl}-6,7-difluoro-1H-quinolin-2-one] | 1200 | 330
11 | CO[C@@H]1C[C@@H](CO)N(C(=O)c2ccc(-n3cc(-c4cc5cc(F)ccc5[nH]c4=O)nn3)cc2)C1 [A241, 6-fluoro-3-{1-[4-((2S,4R)-2-hydroxymethyl-4-methoxy-pyrrolidine-1-carbonyl)-phenyl]-1H-[1,2,3]triazol-4-yl}-1H-quinolin-2-one] | 290 | 100
12 | CO[C@@H]1C[C@H](CO)N(C(=O)c2ccc(-n3cc(-c4cc5cc(F)ccc5[nH]c4=O)nn3)cc2)C1 [A244, 6-fluoro-3-{1-[4-((2R,4R)-2-hydroxymethyl-4-methoxy-pyrrolidine-1-carbonyl)-phenyl]-1H-[1,2,3]triazol-4-yl}-1H-quinolin-2-one] | 13 | 36
13 | O=C(c1ccc(-n2cc(-c3cc4cc(Cl)ccc4[nH]c3=O)nn2)cc1)N1CCC[C@H]1CO [A246, 6-chloro-3-{1-[4-((S)-2-hydroxymethyl-pyrrolidine-1-carbonyl)-phenyl]-1H-[1,2,3]triazol-4-yl}-1H-quinolin-2-one] | 7.4 | 23
14 | CO[C@@H]1C[C@H](CO)N(C(=O)c2ccc(-n3cc(-c4cc5cc(Cl)ccc5[nH]c4=O)nn3)cc2)C1 [A247, 6-chloro-3-{1-[4-((2R,4R)-2-hydroxymethyl-4-methoxy-pyrrolidine-1-carbonyl)-phenyl]-1H-[1,2,3]triazol-4-yl}-1H-quinolin-2-one] | 45 | 23
15 | CO[C@@H]1C[C@@H](CO)N(C(=O)c2ccc(-n3cc(-c4cc5cc(Cl)ccc5[nH]c4=O)nn3)cc2)C1 [A248, 6-chloro-3-{1-[4-((2S,4R)-2-hydroxymethyl-4-methoxy-pyrrolidine-1-carbonyl)-phenyl]-1H-[1,2,3]triazol-4-yl}-1H-quinolin-2-one] | 45 | 35
16 | O=C(c1ccc(-n2cc(-c3cc4cc(Cl)ccc4[nH]c3=O)nn2)cc1)N1CCC(N2CCC(O)CC2)C1 (centres unmarked) [A249, 6-chloro-3-(1-{4-[3-(4-hydroxy-piperidin-1-yl)-pyrrolidine-1-carbonyl]-phenyl}-1H-[1,2,3]triazol-4-yl)-1H-quinolin-2-one] | 260 | 35
17 | O=C(c1ccc(-n2cc(-c3cc4cc(Cl)ccc4[nH]c3=O)nn2)cc1)N1CCN(C2COC2)CC1 [A250, 6-chloro-3-{1-[4-(4-oxetan-3-yl-piperazine-1-carbonyl)-phenyl]-1H-[1,2,3]triazol-4-yl}-1H-quinolin-2-one] | 76 | 40

Results, then the molecule that gave them:

Row | IC50 [1] [nM] | IC50 [2] [nM] | SMILES
18 | 89 | 55 | NC(=O)[C@@H]1CCN(C(=O)c2ccc(-n3cc(-c4cc5cc(F)ccc5[nH]c4=O)nn3)cc2)C1 [A226, (R)-1-{4-[4-(6-fluoro-2-oxo-1,2-dihydro-quinolin-3-yl)-[1,2,3]triazol-1-yl]-benzoyl}-pyrrolidine-3-carboxylic acid amide]
19 | 140 | 92 | O=C(c1ccc(-n2cc(-c3cc4cc(F)ccc4[nH]c3=O)nn2)cc1)N1C[C@H](O)C[C@H]1CO [A227, 6-fluoro-3-{1-[4-((2S,4R)-4-hydroxy-2-hydroxymethyl-pyrrolidine-1-carbonyl)-phenyl]-1H-[1,2,3]triazol-4-yl}-1H-quinolin-2-one]
20 | 95 | 49 | O=C(c1ccc(-n2cc(-c3cc4cc(F)ccc4[nH]c3=O)nn2)cc1)N1CCN(C2COC2)CC1 [A230, 6-fluoro-3-{1-[4-(4-oxetan-3-yl-piperazine-1-carbonyl)-phenyl]-1H-[1,2,3]triazol-4-yl}-1H-quinolin-2-one]
21 | 340 | 90 | O=C(c1ccc(-n2cc(-c3cc4cc(F)ccc4[nH]c3=O)nn2)cc1)N1CCOC2(COC2)C1 [A231, 3-{1-[4-(2,5-dioxa-8-aza-spiro[3.5]nonane-8-carbonyl)-phenyl]-1H-[1,2,3]triazol-4-yl}-6-fluoro-1H-quinolin-2-one]
22 | 980 | 160 | O=C(NC1COC1)c1ccc(-n2cc(-c3cc4cc(F)ccc4[nH]c3=O)nn2)cc1 [A232, 4-[4-(6-fluoro-2-oxo-1,2-dihydro-quinolin-3-yl)-[1,2,3]triazol-1-yl]-N-oxetan-3-yl-benzamide]
23 | 740 | 50 | O=C(c1ccc(-n2cc(-c3cc4cc(F)ccc4[nH]c3=O)nn2)cc1)N1CCCC12COC2 [A234, 6-fluoro-3-{1-[4-(2-oxa-5-aza-spiro[3.4]octane-5-carbonyl)-phenyl]-1H-[1,2,3]triazol-4-yl}-1H-quinolin-2-one]
24 | 140 | 42 | O=C(c1ccc(-n2cc(-c3cc4cc(F)ccc4[nH]c3=O)nn2)cc1)N1CC2(COC2)C1 [A235, 6-fluoro-3-{1-[4-(2-oxa-6-aza-spiro[3.3]heptane-6-carbonyl)-phenyl]-1H-[1,2,3]triazol-4-yl}-1H-quinolin-2-one]
25 | 250 | 130 | CC(=O)N1C[C@@H]2[C@H](C1)[C@H]2NC(=O)c1ccc(-n2cc(-c3cc4cc(F)ccc4[nH]c3=O)nn2)cc1 [A240, N-(3-acetyl-3-aza-bicyclo[3.1.0]hex-6-yl)-4-[4-(6-fluoro-2-oxo-1,2-dihydro-quinolin-3-yl)-[1,2,3]triazol-1-yl]-benzamide]
26 | 17 | 11 | NC(=O)[C@@H]1CCCN1C(=O)c1ccc(-n2cc(-c3cc4cc(F)ccc4[nH]c3=O)nn2)cc1 [A242, (S)-1-{4-[4-(6-fluoro-2-oxo-1,2-dihydro-quinolin-3-yl)-[1,2,3]triazol-1-yl]-benzoyl}-pyrrolidine-2-carboxylic acid amide]
27 | 14 | 30 | NC(=O)[C@H]1CCN(C(=O)c2ccc(-n3cc(-c4cc5cc(F)ccc5[nH]c4=O)nn3)cc2)C1 [A243, (S)-1-{4-[4-(6-fluoro-2-oxo-1,2-dihydro-quinolin-3-yl)-[1,2,3]triazol-1-yl]-benzoyl}-pyrrolidine-3-carboxylic acid amide]
28 | 470 | 65 | O=C(c1ccc(-n2cc(-c3cc4cc(F)ccc4[nH]c3=O)nn2)cc1)N1CCCCC12COC2 [A245, 6-fluoro-3-{1-[4-(2-oxa-5-aza-spiro[3.5]nonane-5-carbonyl)-phenyl]-1H-[1,2,3]triazol-4-yl}-1H-quinolin-2-one]
